These results are taken from patent publication US20040086901A1, “Database for analyzing gene function and method of analyzing gene function by dspa” (priority 2000, published 2004).

What all share (assay type): cell-based, mouse
The subject of experiment [1] is NIH3T3 cells overexpressing Bax. As to the kind of experiment: MTT cell viability, Bax overexpressing cells vs parental line. Particulars: 3 to 4 days. Put shortly:
(§1)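 Drugs were serially diluted twofold across nine wells. Cells were then added from a suspension of 1×10^5 cells/ml and cultured for 3 to 4 days. After a 4 h MTT incubation at 37 °C and acid-isopropanol solubilisation, formazan was measured at 574 nm and IC40 ratios were derived.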

Experiment [2] relates to NIH3T3 cells overexpressing JNK-DN. The experiment is described as follows: MTT cell viability, JNK-DN overexpressing cells vs parental line. Particulars: JNK-DN high-expressing cells / parental cell line, 3 to 4 days. Put shortly: (§2)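 Stable NIH3T3 transfectants (cDNA in pRc-CMV-type vector, G-418-selected, high expressers picked by Western blot) and parental cells were seeded at 1×10^5 cells/ml into twofold serial drug dilutions and grown 3–4 days. MTT formazan was read at 574/655 nm, and log ratios of IC40 values were derived.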

Experiment [3] relates to NIH3T3 cells overexpressing C/EBPb. The experiment is described as follows: MTT cell viability, C/EBPb overexpressing cells vs parental line. Particulars: C/EBPb high-expressing cells / parental cell line, 3 to 4 days. The gist of the method:
as §1

For experiment [4], the system named is NIH3T3 cells overexpressing T.Tn. As to the kind of experiment: MTT cell viability, T.Tn overexpressing cells vs parental line. Particulars: T.Tn high-expressing cells / parental cell line, 3 to 4 days. The gist of the method: as §1
For experiment [5], the system named is NIH3T3 cells overexpressing v-src. The experiment is described as follows: MTT cell viability, v-src overexpressing cells vs parental line. Particulars: v-src high-expressing cells / parental cell line, 3 to 4 days. The gist of the method:
as §2

The subject of experiment [6] is NIH3T3 cells overexpressing RhoA. As to the kind of experiment: MTT cell viability, RhoA overexpressing cells vs parental line. Particulars: RhoA high-expressing cells / parental cell line, 3 to 4 days. The gist of the method:
as §2

The subject of experiment [7] is NIH3T3 cells overexpressing p33/ING1. As to the kind of experiment: MTT cell viability, p33/ING1 overexpressing cells vs parental line. As to conditions: p33/ING1 high-expressing cells / parental cell line, 3 to 4 days. The gist of the method: as §2
For experiment [8], the system named is NIH3T3 cells overexpressing C/EBPa. The experiment is described as follows: MTT cell viability, C/EBPa overexpressing cells vs parental line. As to conditions: C/EBPa high-expressing cells / parental cell line, 3 to 4 days. Put shortly: as §1
Experiment [9] relates to NIH3T3 cells overexpressing TK. As to the kind of experiment: MTT cell viability, TK overexpressing cells vs parental line. As to conditions: TK high-expressing cells / parental cell line, 3 to 4 days. The gist of the method: as §2
Experiment [10] relates to NIH3T3 cells, TPA (PKC downreg). The experiment is described as follows: MTT cell viability, TPA (PKC downreg) cells vs parental line. Particulars: 3 to 4 days.
Experiment [11] relates to NIH3T3 cells overexpressing PDGF-R-Del. As to the kind of experiment: MTT cell viability, PDGF-R-Del overexpressing cells vs parental line. Particulars: PDGF-R-Del high-expressing cells / parental cell line, 3 to 4 days. The gist of the method: as §2
The test system of experiment [12] is NIH3T3 cells overexpressing calpastatin. As to the kind of experiment: MTT cell viability, calpastatin overexpressing cells vs parental line. As to conditions: calpastatin high-expressing cells / parental cell line, 3 to 4 days. Put shortly:
as §2

Experiment [13] concerns NIH3T3 cells overexpressing cystatin alpha. As to the kind of experiment: MTT cell viability, cystatin alpha overexpressing cells vs parental line. As to conditions: cystatin alpha high-expressing cells / parental cell line, 3 to 4 days. Put shortly: as §2
Experiment [14] deals with NIH3T3 cells overexpressing cAMP-PK-CS. The experiment is described as follows: MTT cell viability, cAMP-PK-CS overexpressing cells vs parental line. As to conditions: cAMP-PK-CS high-expressing cells / parental cell line, 3 to 4 days. Put shortly:
as §1

In experiment [15] the test system is NIH3T3 cells overexpressing erbB2. As to the kind of experiment: MTT cell viability, erbB2 overexpressing cells vs parental line. As to conditions: erbB2 high-expressing cells / parental cell line, 3 to 4 days. Put shortly: as §2
Experiment [16] concerns NIH3T3 cells overexpressing CP-antisense. The experiment is described as follows: MTT cell viability, CP-antisense cells vs parental line. As to conditions: 3 to 4 days. The gist of the method:
as §2

The subject of experiment [17] is NIH3T3 cells overexpressing STAT1. The experiment is described as follows: MTT cell viability, STAT1 overexpressing cells vs parental line. As to conditions: STAT1 high-expressing cells / parental cell line, 3 to 4 days. The gist of the method: as §1
Experiment [18] concerns NIH3T3 cells overexpressing DAN. As to the kind of experiment: MTT cell viability, DAN overexpressing cells vs parental line. Particulars: DAN high-expressing cells / parental cell line, 3 to 4 days. The gist of the method: as §2
Experiment [19] deals with NIH3T3 cells overexpressing PKCepsilon-KN. As to the kind of experiment: MTT cell viability, PKCepsilon-KN overexpressing cells vs parental line. As to conditions: 3 to 4 days. Put shortly:
as §1

The mark [20] stands for this setting: Bax (first of two Bax lines) high-expressing cells / parental cell line.
Setting [21] is: Bax (second of two Bax lines) high-expressing cells / parental cell line.
Setting [22] is: PKCepsilon-KN (first of two lines) high-expressing cells / parental cell line.
[23] abbreviates: PKCepsilon-KN (second of two lines) high-expressing cells / parental cell line.

As to `COc1ccc2c(c1)CC[C@@H]1[C@@H]2CC[C@]2(C)[C@@H](NCCCCCCN3C(=O)C=CC3=O)CC[C@@H]12` [U73122], the “logarithmic value of ratio of IC40 values” in experiment [1] (setting [20]) was 0.00; in [1] (setting [21]), 0.00; in experiment [2], −0.07; in experiment [3], 0.10; in experiment [4], −0.26; in experiment [5], −0.59. Also, the “logarithmic value of ratio of IC40 values” in experiment [6] is reported as 0.12; in experiment [7] it was 0.28; in experiment [8] it was 0.00; in experiment [9], 0.00; in experiment [10] it was −0.12; in experiment [11], 0.00. Further, the “logarithmic value of ratio of IC40 values” in experiment [12] is recorded as −0.313; in experiment [13], 0.04; in experiment [14], −0.18; in experiment [15] it was −0.96; in [16], −0.10; in experiment [17], 0.18. Besides, the “logarithmic value of ratio of IC40 values” in experiment [18] was 0.36; in experiment [19] (setting [22]), −0.21; in experiment [19] (setting [23]), −0.38.
On to `COC[C@H]1OC(=O)c2coc3c2[C@@]1(C)C1=C(C3=O)[C@@H]2CCC(=O)[C@@]2(C)C[C@H]1OC(C)=O` [Wortmannin, wortmannin], for which the “logarithmic value of ratio of IC40 values” is 0.14 in [1] (setting [20]); 0.10 in [1] (setting [21]); −0.09 in experiment [2]; 0.34 in experiment [3]; 0.36 in experiment [4]; 0.08 in experiment [5]. For the same molecule, the “logarithmic value of ratio of IC40 values” in [6] is 0.24; in experiment [7] it was 0.00; in experiment [8] it was 0.00; in [9], 0.00; in experiment [10], 0.00; in experiment [11], 0.07. Further, the “logarithmic value of ratio of IC40 values” in experiment [12] is given as −0.14; in experiment [13], 0.45; in experiment [14], −0.07; in experiment [15] it was 0.16; in [16] it was −0.12; in experiment [17] it was 0.00. In addition, the “logarithmic value of ratio of IC40 values” in [18] was 0.52; in experiment [19] (setting [22]) it was −0.15; in experiment [19] (setting [23]) it was −0.28.
In the case of `C=C[C@]1(C)CC[C@@H](C(=C)C)C[C@H]1C(=C)C` [b-elemene, β-elemene], the “logarithmic value of ratio of IC40 values” in [1] (setting [20]) is 0.14; in experiment [1] (setting [21]) it was 0.00; in experiment [2], −0.04; in experiment [3], 0.50; in experiment [4], −0.14; in experiment [5] it was −0.35. The “logarithmic value of ratio of IC40 values” in [6] is on record as 0.00; in [7] it was −0.14; in experiment [8] it was 0.00; in [9], −0.14; in experiment [10], 0.00; in experiment [11], 0.16. Also, the “logarithmic value of ratio of IC40 values” in experiment [12] was 0.18; in [13], 0.08; in [14], −0.10; in [15], −0.46; in experiment [16] it was 0.00; in experiment [17] it was 0.05. Moreover, the “logarithmic value of ratio of IC40 values” is 0.04 in experiment [18], 0.00 in experiment [19] (setting [22]) and −0.23 in [19] (setting [23]).
In the case of ICE inhibitor-III [ICEin-3], the “logarithmic value of ratio of IC40 values” in [1] (setting [20]) is recorded as −0.12; in [1] (setting [21]), 0.00; in experiment [2] it was 0.00; in experiment [3] it was 0.35; in [4] it was 0.30; in experiment [5], −0.14. Also, the “logarithmic value of ratio of IC40 values” in experiment [6] was 0.19; in experiment [7] it was −0.15; in experiment [8] it was −0.46; in [9] it was −0.15; in experiment [10], −0.09; in experiment [11], 0.00. The “logarithmic value of ratio of IC40 values” in experiment [12] was −0.088; in experiment [13] it was 0.32; in experiment [14], 0.00; in experiment [15], 0.18; in experiment [16], −0.19; in experiment [17] it was 0.09. In addition, the figures for the “logarithmic value of ratio of IC40 values” in experiment [18], in experiment [19] (setting [22]) and in [19] (setting [23]) were 0.00, −0.21 and 0.33, respectively.
